Assay results as given in ChEMBL document CHEMBL1201862, “PubChem BioAssay data set” (2004).
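Assay format: 96-well plates, 48-hour exposure. GI50 = concentration required for 50% inhibition of growth.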 Calls of active or inactive are those of the source. Rule as the data show it: active = GI50 up to about 1.1 µM and inactive = higher.

Experiments:
Experiment in all cases: NCI anticancer screen, dose series, 48 h
A498 = test system: A498
CAKI-1 = test system: CAKI-1
DU-145 = test system: DU-145
EKVX = test system: EKVX
HCC 2998 = test system: HCC 2998
HCT-116 = test system: HCT-116
IGROV-1 = test system: IGROV-1
KM12 = test system: KM12
LOX IMVI = test system: LOX IMVI
MCF7 = test system: MCF7
MDA-MB-435 = test system: MDA-MB-435
NCI-H522 = test system: NCI-H522
RPMI-8226 = test system: RPMI-8226
SK-MEL-2 = test system: SK-MEL-2
SN12C = test system: SN12C
SNB-19 = test system: SNB-19
SW-620 = test system: SW-620
U-251 = test system: U-251

Measured: GI50

O=C1OC2(CCCCC2)C(Oc2ccc(Cl)cc2)=C1F
inactive: A498 47.3 µM | CAKI-1 77.4 µM | DU-145 92.9 µM | EKVX 38.2 µM | HCC 2998 22.3 µM | HCT-116 35.7 µM | IGROV-1 54.8 µM | KM12 40.1 µM | LOX IMVI 27.9 µM | MCF7 37.8 µM | MDA-MB-435 35.6 µM | NCI-H522 12.7 µM | RPMI-8226 32.7 µM | SK-MEL-2 23.8 µM | SN12C 45.2 µM | SNB-19 88.7 µM | SW-620 23.6 µM | U-251 61.8 µM

CCOC(=O)c1sc2nc(SC)nc3c2c1N=CN3c1ccc(Br)cc1
inactive: A498 25.2 µM | CAKI-1 98.9 µM | DU-145 > 100 µM | EKVX > 100 µM | HCC 2998 > 100 µM | HCT-116 > 100 µM | IGROV-1 > 100 µM | KM12 > 100 µM | LOX IMVI > 100 µM | MCF7 > 100 µM | MDA-MB-435 > 100 µM | NCI-H522 > 100 µM | RPMI-8226 > 100 µM | SK-MEL-2 > 100 µM | SN12C > 100 µM | SNB-19 > 100 µM | SW-620 > 100 µM | U-251 76.2 µM

CC(=O)SC(C[N+](=O)[O-])c1ccc2c(c1)OCO2 (stereo not given)
inactive: A498 3.02 µM | CAKI-1 6.56 µM | DU-145 11 µM | EKVX 21.4 µM | HCC 2998 1.73 µM | HCT-116 2.31 µM | IGROV-1 5.2 µM | KM12 4.75 µM | LOX IMVI 1.81 µM | MCF7 3 µM | MDA-MB-435 3.54 µM | NCI-H522 5.22 µM | RPMI-8226 1.39 µM | SK-MEL-2 6.19 µM | SN12C 5.73 µM | SNB-19 9.31 µM | SW-620 3.24 µM | U-251 5.37 µM

O=C1N2CCC[C@H]2CS1(=O)=O
inactive: A498 20.4 µM | CAKI-1 5.73 µM | DU-145 17.9 µM | EKVX 22 µM | HCC 2998 17.3 µM | HCT-116 12.7 µM | IGROV-1 15.5 µM | KM12 16.6 µM | LOX IMVI 11.3 µM | MCF7 6.73 µM | MDA-MB-435 17.1 µM | NCI-H522 5.66 µM | RPMI-8226 2.77 µM | SK-MEL-2 17.6 µM | SN12C 15.7 µM | SNB-19 35.9 µM | SW-620 8 µM | U-251 16.5 µM

O=[N+]([O-])c1cccc(/N=C2\c3ccccc3CN2c2cccc([N+](=O)[O-])c2)c1
inactive: A498 > 100 µM | CAKI-1 > 100 µM | DU-145 > 100 µM | EKVX > 100 µM | HCC 2998 > 100 µM | HCT-116 > 100 µM | IGROV-1 > 100 µM | KM12 > 100 µM | LOX IMVI > 100 µM | MCF7 33.7 µM | MDA-MB-435 > 100 µM | NCI-H522 > 100 µM | RPMI-8226 > 100 µM | SK-MEL-2 > 100 µM | SN12C > 100 µM | SNB-19 > 100 µM | SW-620 > 100 µM | U-251 > 100 µM

CSc1c(C#N)c(S)n(-c2ccc(Cl)cc2)c(=O)c1C#N
inactive: A498 > 100 µM | CAKI-1 > 100 µM | DU-145 > 100 µM | EKVX > 100 µM | HCC 2998 > 100 µM | HCT-116 45.4 µM | IGROV-1 80.7 µM | KM12 40.2 µM | LOX IMVI > 100 µM | MCF7 > 100 µM | MDA-MB-435 > 100 µM | NCI-H522 50.9 µM | RPMI-8226 38.7 µM | SK-MEL-2 > 100 µM | SN12C > 100 µM | SNB-19 > 100 µM | SW-620 > 100 µM | U-251 > 100 µM

CC(NC1=CC(=O)c2ncccc2C1=O)C(O)c1ccccc1 (stereo not given)
inactive: A498 13.4 µM | CAKI-1 6.78 µM | DU-145 6.22 µM | EKVX 12.6 µM | HCC 2998 10.2 µM | HCT-116 3.6 µM | IGROV-1 3.67 µM | KM12 7.67 µM | LOX IMVI 1.8 µM | MCF7 2.31 µM | MDA-MB-435 1.59 µM | NCI-H522 7.66 µM | RPMI-8226 13.4 µM | SK-MEL-2 3.55 µM | SN12C 5.18 µM | SNB-19 6.35 µM | SW-620 4.9 µM | U-251 2.61 µM

CSc1ccsc1-c1sc(-c2cc(SC)c(-c3sc(-c4cc(SC)c(-c5sccc5SC)s4)cc3SC)s2)cc1SC
inactive: A498 > 100 µM | CAKI-1 17.2 µM | DU-145 96.8 µM | EKVX > 100 µM | HCC 2998 > 100 µM | HCT-116 75.9 µM | IGROV-1 > 100 µM | KM12 65.2 µM | LOX IMVI > 100 µM | MCF7 57.1 µM | MDA-MB-435 20.9 µM | NCI-H522 18.3 µM | RPMI-8226 3.44 µM | SK-MEL-2 > 100 µM | SN12C 42.3 µM | SNB-19 > 100 µM | SW-620 21.5 µM | U-251 67.3 µM

CC(=O)c1c(C)cc2cccc(OC3OC(CO)C(O)C(O)C3O)c2c1O.CC1OC(O)C(O)C(O)C1O (stereo not given)
inactive: A498 > 100 µM | CAKI-1 > 100 µM | DU-145 > 100 µM | EKVX > 100 µM | HCC 2998 > 100 µM | HCT-116 > 100 µM | IGROV-1 > 100 µM | KM12 > 100 µM | LOX IMVI > 100 µM | MCF7 > 100 µM | MDA-MB-435 > 100 µM | NCI-H522 > 100 µM | RPMI-8226 > 100 µM | SK-MEL-2 > 100 µM | SN12C > 100 µM | SNB-19 > 100 µM | SW-620 > 100 µM | U-251 > 100 µM

Cc1ccc2c(c1)C(C1Cc3c(C)cccc3C1=O)OC2=O (stereo not given)
inactive: A498 > 100 µM | CAKI-1 > 100 µM | DU-145 > 100 µM | EKVX > 100 µM | HCC 2998 > 100 µM | HCT-116 > 100 µM | IGROV-1 > 100 µM | KM12 > 100 µM | LOX IMVI > 100 µM | MCF7 > 100 µM | MDA-MB-435 > 100 µM | NCI-H522 > 100 µM | RPMI-8226 63.2 µM | SK-MEL-2 > 100 µM | SN12C > 100 µM | SNB-19 > 100 µM | SW-620 > 100 µM | U-251 78 µM

CCCn1c2ccccc2c2ccc3c(c21)C(=O)C=CC3=O
inactive: A498 > 10 µM | CAKI-1 2.78 µM | DU-145 9.79 µM | EKVX > 5.32 µM | HCC 2998 > 9.68 µM | HCT-116 1.63 µM | IGROV-1 3.31 µM | KM12 > 10 µM | LOX IMVI > 10 µM | MCF7 2.19 µM | MDA-MB-435 2.3 µM | NCI-H522 1.98 µM | RPMI-8226 2.12 µM | SK-MEL-2 > 4.78 µM | SN12C 3.78 µM | SNB-19 > 10 µM | SW-620 1.16 µM | U-251 > 7.59 µM

O=c1c2ccccc2nc2sc(/N=C/C=C/c3ccccc3)nn12
inactive: A498 > 100 µM | CAKI-1 > 100 µM | DU-145 > 100 µM | EKVX > 100 µM | HCC 2998 > 100 µM | HCT-116 > 100 µM | IGROV-1 > 100 µM | KM12 > 100 µM | LOX IMVI 56.9 µM | MCF7 > 100 µM | MDA-MB-435 > 100 µM | NCI-H522 > 100 µM | RPMI-8226 > 100 µM | SK-MEL-2 > 100 µM | SN12C > 100 µM | SNB-19 > 100 µM | SW-620 > 100 µM | U-251 > 100 µM

Cc1ccc(-c2c(C#N)c(N)[nH]c(=S)c2C#N)cc1
inactive: A498 35.2 µM | CAKI-1 49.8 µM | DU-145 50.8 µM | EKVX 13.4 µM | HCC 2998 26.7 µM | HCT-116 32.4 µM | IGROV-1 43.3 µM | KM12 40.8 µM | LOX IMVI 42.2 µM | MCF7 32 µM | MDA-MB-435 23.3 µM | NCI-H522 19.4 µM | RPMI-8226 17.7 µM | SK-MEL-2 25.2 µM | SN12C 22.3 µM | SNB-19 77.1 µM | SW-620 13.6 µM | U-251 49.1 µM

CC1=NN(C(=O)CC(=O)Nc2ccccc2Cl)C(=O)C1/N=N/c1ccc(C(=O)O)cc1 (stereo not given)
inactive: A498 > 100 µM | CAKI-1 > 100 µM | DU-145 > 100 µM | EKVX 4.46 µM | HCC 2998 > 100 µM | HCT-116 > 100 µM | IGROV-1 > 100 µM | KM12 > 100 µM | LOX IMVI 65.6 µM | MCF7 > 100 µM | MDA-MB-435 > 100 µM | NCI-H522 > 100 µM | RPMI-8226 > 100 µM | SK-MEL-2 > 100 µM | SN12C > 100 µM | SNB-19 > 100 µM | SW-620 > 100 µM | U-251 > 100 µM

Nc1nccc(Nc2ccc(S(N)(=O)=O)cc2)n1
inactive: A498 > 100 µM | CAKI-1 > 100 µM | DU-145 > 100 µM | EKVX > 100 µM | HCC 2998 > 100 µM | HCT-116 > 100 µM | IGROV-1 > 100 µM | KM12 > 100 µM | LOX IMVI > 100 µM | MCF7 > 100 µM | MDA-MB-435 > 100 µM | NCI-H522 > 100 µM | RPMI-8226 > 100 µM | SK-MEL-2 > 100 µM | SN12C > 100 µM | SNB-19 > 100 µM | SW-620 > 100 µM | U-251 > 100 µM
